16 molecules from patent US5449814A, “Lignan analogues, methods of preparation thereof and anti-hyperlipemic agents” (Shionogi & Co., Ltd., priority 1991, dated 1995) can be followed below.

Like-named read-outs stand apart in the source and are kept apart here.

For orientation: IC50 means the concentration that gives 50% inhibition.

For one test, the system named is cholesterol in serum. Description: Hypocholesterolemic effect in cholesterol-fed mice. In kind it is in vivo, Male ICR mice. The settings on record: Mus musculus, po, 168 h, diet 1% cholesterol and 0.5% sodium cholate with 0.12% test compound, 7 days. How it is done: Hypocholesterolemic effect
Male ICR mice weighing 30 to 40 g were allowed to access to a diet containing 1% cholesterol and 0.5% sodium cholate supplemented with 0.12% of a test compound (no test compound in control group) ad libitum for 7 days. Then, the blood was taken and total cholesterol in serum was determined by the method of Allain (Clin. Chem., Vol. 20, 470 (1974)).
Total amount of VLDL cholesterol and LDL cholesterol was obtained by subtracting HLD cholesterol from total cholesterol. HLD cholesterol was quantified by the method of Ash and Hentschel et al. (Clin. Chem., Vol. 24, 2180 (1978)).
Hypocholesterolemic effect of a test compound was evaluated based on % reduction in cholesterol calculated using the equation shown below.

A further test relates to LDL. The test can be described thus: Inhibitory effect on oxidative modification of LDL (copper-induced, TBA reactive substances). In kind it is biochemical, New Zealand albino rabbits. The settings on record: rabbit LDL 0.2 mg protein/ml, 0.5 μM Cu^2+, 37° C., 24 hours; read-out: Inhibition of LDL oxidation IC50. Here is the method: Inhibitory effect on oxidative modification of LDL
According to the method by Kita et al. (Proc. Natl. Acad. Sci., U.S.A, Vol. 84, 5928 (1987)), the experiment was proceeded as follows.
LDL was isolated from the blood of New Zealand albino rabbits fed with a diet containing 0.5% cholesterol for 3 weeks, and dissolved in phosphate-buffered physiological saline (final LDL concentration: 0.2 mg protein/ml). To this solution, each test compound in ethanol was added and then copper sulfate (final Cu^2+ concentration: 0.5 μM) was added thereto. The mixture was incubated at 37° C. for 24 hours.
After incubation, the content of lipid peroxides in each solution was determined as thiobarbituric acid reactive substances (TBA reactive substances). Concentration for 50% inhibition (IC50) was obtained from a linear regression curve of concentration of a compound versus % inhibition of oxidative modification of LDL. To quantify TBA reactive substances, proteins were removed from the solution after incubation, and the supernatant was examined for the content of TBA reactive substances by TBA method.

Where [1] appears, read: serum, read-out: Total Chol. reduction (%).
Setting [2] is: total minus HDL cholesterol, read-out: (VLDL + LDL) Chol. reduction (%).

In the case of `COC(=O)c1c(C(=O)c2ccc(C(F)(F)F)cc2)c(O)c2cc(OC)c(OC)c(OC)c2c1-c1ccc(OC)cc1OC` [Example 43, 1-(2,4-Dimethoxyphenyl)-4-hydroxy-2-methoxycarbonyl-3-[4-(trifluoromethyl)benzoyl]-6,7,8-trimethoxynaphthalene], the inhibition in vivo at 0.12 % in diet in the test with cholesterol in serum (setting [1]) came to 15%; in the test with cholesterol in serum (setting [2]), 59%. In the test with LDL, the IC50 was found to be 2120 nM.

As for `COC(=O)c1c(C(=O)c2ccc(C(F)(F)F)cc2)c(O)c2cc3c(cc2c1-c1ccc(OC)cc1OC)OCO3` [Example 46, 1-(2,4-Dimethoxyphenyl)-4-hydroxy-2-methoxycarbonyl-6,7-methylenedioxy-3-[4-(trifluoromethyl)benzoyl]naphthalene], the values for the inhibition in vivo at 0.12 % in diet in the test on cholesterol in serum (setting [1]) and in the test on cholesterol in serum (setting [2]) were 5% and 47%, respectively. In addition, the IC50 with LDL was found to be 6200 nM.

Turning to `CCC(=O)c1c(C(=O)OC)c(-c2ccc(OC)c(OC)c2)c2sc(CC)c(OC)c2c1O` [Example 56, 7-(3,4-Dimethoxyphenyl)-2-ethyl-4-hydroxy-3-methoxy-6-methoxycarbonyl-5-(1-oxopropyl)benzo[b]thiophene], the inhibition in vivo at 0.12 % in diet in the test with cholesterol in serum (setting [1]) worked out at 20%; with cholesterol in serum (setting [2]), 58%. Moreover, the half-maximal inhibitory concentration (IC50) in the test with LDL turned out to be 1280 nM.

As to `CCC(CC)CC(=O)c1c(C(=O)OC)c(-c2ccc(OC)c(F)c2)c2c(OC)c(OC)c(OC)cc2c1O` [Example 61, 3-(3-Ethyl-1-oxopentyl)-1-(3-fluoro-4-methoxyphenyl)-4-hydroxy-2-methoxycarbonyl-6,7,8-trimethoxynaphthalene], the inhibition in vivo at 0.12 % in diet with cholesterol in serum (setting [1]) turned out to be 11%; in the test on cholesterol in serum (setting [2]) it was 43%. In addition, the IC50 in the test on LDL was 4950 nM.

`COc1ccc(-c2c(C)c(C(=O)c3ccc(C(F)(F)F)cc3)c(O)c3cc(OC)c(OC)c(OC)c23)cc1OC` [Example 62, 1-(3,4-dimethoxyphenyl)-4-hydroxy-2-methyl-3-[4-(trifluoromethyl)benzoyl]-6,7,8-trimethoxynaphthalene]: the inhibition in vivo at 0.12 % in diet was 27% in the test with cholesterol in serum (setting [1]) and 59% in the test with cholesterol in serum (setting [2]). In addition, in the test with LDL, the IC50 was found to be 8980 nM.

On to `COc1ccc(-c2c(C(F)(F)F)c(C(=O)c3ccc(C(F)(F)F)cc3)c(O)c3cc(OC)c(OC)c(OC)c23)cc1OC` [Example 63, 1-(3,4-dimethoxyphenyl)-4-hydroxy-2-(trifluoromethyl)-3-[4-(trifluoromethyl)benzoyl]-6,7,8-trimethoxynaphthalene], for which the inhibition in vivo at 0.12 % in diet was found to be 20% with cholesterol in serum (setting [1]) and 53% in the test with cholesterol in serum (setting [2]). Further, in the test with LDL, the IC50 was 2320 nM.

Take `CCC(CC)C(=O)c1c(C)c(-c2ccc(OC)c(OC)c2)c2c(OC)c(OC)c(OC)cc2c1O` [Example 64, 1-(3,4-dimethoxyphenyl)-3-(2-ethyl-1-oxobutyl)-4-hydroxy-2-methyl-6,7,8-trimethoxynaphthalene]: the inhibition in vivo at 0.12 % in diet was found to be 2% with cholesterol in serum (setting [1]) and 39% with cholesterol in serum (setting [2]). Also, in the test with LDL, the half-maximal inhibitory concentration (IC50) was determined as 7100 nM.

Turning to `CCC(CC)C(=O)c1c(C(F)(F)F)c(-c2ccc(OC)c(OC)c2)c2c(OC)c(OC)c(OC)cc2c1O` [Example 66, 1-(3,4-Dimethoxyphenyl)-3-(2-ethyl-1-oxobutyl)-4-hydroxy-2-(trifluoromethyl)-6,7,8-trimethoxynaphthalene], the inhibition in vivo at 0.12 % in diet came out at 9% in the test on cholesterol in serum (setting [1]) and 36% in the test with cholesterol in serum (setting [2]). The IC50 in the test with LDL is 1470 nM.

Consider `CCC(CC)CC(=O)c1c(C(=O)OC)c(-c2ccc(OC)c(OC)c2)c2c(OC)c(OC)c(OC)c(OC)c2c1O` [Example 69, 1-(3,4-dimethoxyphenyl)-3-(3-ethyl-1-oxopentyl)-4-hydroxy-2-methoxycarbonyl-5,6,7,8-tetramethoxynaphthalene], for which the inhibition in vivo at 0.12 % in diet in the test on cholesterol in serum (setting [1]) is 10%; with cholesterol in serum (setting [2]), 16%. For the same molecule, the IC50 in the test on LDL is 2790 nM.

On to `CCC(CC)CC(=O)c1c(C(=O)OC)c(-c2ccc(OC)c(OC)c2)c2c(OC)c(OC)c(OC)c(CO)c2c1O` [Example 71, 1-(3,4-dimethoxyphenyl)-3-(3-ethyl-1-oxopentyl)-4-hydroxy-5-hydroxymethyl-2-methoxycarbonyl-6,7,8-trimethoxynaphthalene], for which the results for the inhibition in vivo at 0.12 % in diet in the test on cholesterol in serum (setting [1]) and in the test on cholesterol in serum (setting [2]) were 16% and 44%, respectively. Further, the concentration for half-maximal inhibition (IC50) in the test on LDL is 5960 nM.

As to `CCC(=O)c1c(C(=O)OC)c(-c2ccc(OC)c(OC)c2)c2c(OC)c(OC)c(OC)c(C)c2c1O` [Example 72, 1-(3,4-dimethoxyphenyl)-3-(1-oxopropyl)-4-hydroxy-2-methoxycarbonyl-5-methyl-6,7,8-trimethoxynaphthalene], the inhibition in vivo at 0.12 % in diet was determined as 20% in the test with cholesterol in serum (setting [1]) and 64% in the test with cholesterol in serum (setting [2]). In addition, the IC50 in the test with LDL came to 590 nM.

Turning to `CCC(=O)c1c(C(=O)OC)c(-c2ccc(OC)c(OC)c2)c2c(OC)c(OC)c(OC)c(OC)c2c1O` [Example 73, 1-(3,4-dimethoxyphenyl)-3-(1-oxopropyl)-4-hydroxy-2-methoxycarbonyl-5,6,7,8-tetramethoxynaphthalene], the inhibition in vivo at 0.12 % in diet in the test on cholesterol in serum (setting [1]) turned out to be 13%; in the test on cholesterol in serum (setting [2]), 60%. Moreover, in the test on LDL, the 50% inhibitory concentration (IC50) is 2920 nM.

For `CCC(=O)c1c(C(=O)OC)c(-c2ccc(OC)c(OC)c2)c2c(OC)c(OC)c(OC)c(COC)c2c1O` [Example 74, 1-(3,4-dimethoxyphenyl)-3-(1-oxopropyl)-4-hydroxy-2-methoxycarbonyl-5-methoxymethyl-6,7,8-trimethoxynaphthalene], the inhibition in vivo at 0.12 % in diet in the test with cholesterol in serum (setting [1]) was 6%; in the test with cholesterol in serum (setting [2]), 41%. Moreover, the half-maximal inhibitory concentration (IC50) with LDL was 6560 nM.

Consider `COC(=O)c1c(C(=O)C(C)C)c(O)c2c(C)c(OC)c(OC)c(OC)c2c1-c1ccc(OC)c(OC)c1` [Example 76, 1-(3,4-dimethoxyphenyl)-3-(2-methyl-1-oxo-propyl)-4-hydroxy-2-methoxycarbonyl-5-methyl-6,7,8-trimethoxynaphthalene], for which the inhibition in vivo at 0.12 % in diet stood at 15% in the test on cholesterol in serum (setting [1]) and 43% in the test on cholesterol in serum (setting [2]). The IC50 in the test on LDL is 540 nM.

On to `COC(=O)c1c(C(=O)C(C)C)c(O)c2c(OC)c(OC)c(OC)c(OC)c2c1-c1ccc(OC)c(OC)c1` [Example 77, 1-(3,4-dimethoxyphenyl)-3-(2-methyl-1-oxopropyl)-4-hydroxy-2-methoxycarbonyl-5,6,7,8-tetramethoxynaphthalene], for which the values for the inhibition in vivo at 0.12 % in diet with cholesterol in serum (setting [1]) and in the test on cholesterol in serum (setting [2]) were 18% and 53%, respectively. Further, the IC50 in the test with LDL is 2550 nM.

For `COC(=O)c1c(C(=O)c2ccccc2)c(O)c2c(C)c(OC)c(OC)c(OC)c2c1-c1ccc(OC)c(OC)c1` [Example 78, 3-benzoyl-1-(3,4-dimethoxyphenyl)-4-hydroxy-2-methoxycarbonyl-5-methyl-6,7,8-trimethoxynaphthalene], the results for the inhibition in vivo at 0.12 % in diet in the test on cholesterol in serum (setting [1]) and in the test with cholesterol in serum (setting [2]) were 14% and 42%, respectively. The IC50 with LDL was determined as 620 nM.
